We go through 2 compounds from PMC4580410, “Characterization of Kbot21 Reveals Novel Side Chain Interactions of Scorpion Toxins Inhibiting Voltage-Gated Potassium Channels” (PLoS ONE, 2015).

Where a SMILES comes first, the peptide text is derived from it. Bridges are numbered along the chain shown (N, C = ends).

One data set concerns rKV2.1. Nature of the data set: Two-electrode voltage-clamp, Xenopus oocytes expressing rKV2.1. The note with it: 1 μM toxin, TEVC, n ≥ 3. Type of data set: cell-based, rat. Here is the method:
(§1) For the expression of the VGPCs (rKV1.1, rKV1.2, hKV1.3, rKV1.4, rKV1.6, Shaker IR, rKV2.1) in Xenopus oocytes, the linearized plasmids were transcribed using the T7 or SP6 mMESSAGE-mMACHINE transcription kit (Ambion, USA). The harvesting of stage V-VI oocytes from anaesthetized female Xenopus laevis frog was previously described. Oocytes were injected with 50 nl of cRNA at a concentration of 1 ng/nl using a micro-injector (Drummond Scientific, USA). The oocytes were incubated in ND96 solution containing (in mM): NaCl, 96; KCl, 2; CaCl2, 1.8; MgCl2, 2 and HEPES, 5 (pH 7.4), supplemented with 50 mg/l gentamycin sulfate. The use of the frogs was in accordance with the license number LA1210239.
(§2) Two-electrode voltage-clamp recordings were performed at room temperature (18–22°C) using a Geneclamp 500 amplifier (Molecular Devices, USA) controlled by a pClamp data acquisition system (Axon Instruments, USA). Whole cell currents from oocytes were recorded 1–4 days after injection. Bath solution composition was ND96 (in mM): NaCl, 96; KCl, 2; CaCl2, 1.8; MgCl2, 2 and HEPES, 5 (pH 7.4). Voltage and current electrodes were filled with 3 M KCl. Resistances of both electrodes were kept between 0.7–1.5 MΩ. The elicited currents were filtered at 1 kHz and sampled at 500 Hz using a four-pole low-pass Bessel filter. Leak subtraction was performed using a-P/4 protocol. […]
In general terms: Two-electrode voltage clamp is typically applied to oocytes expressing channels or transporters.

The next data set has as its system rKV1.2. Nature of the data set: Two-electrode voltage-clamp, Xenopus oocytes expressing rKV1.2. Type of data set: cell-based, rat. The note with it: 1 μM toxin, TEVC, n ≥ 3. As for the experimental part:
as §1, §2

For a further data set, the system named is hKV1.3. Nature of the data set: Two-electrode voltage-clamp, Xenopus oocytes expressing hKV1.3. Conditions: 1 μM toxin, TEVC, n ≥ 3. It counts as cell-based, human. Here is the method: as §1, §2
The test system of another data set is Shaker IR. Nature of the data set: Two-electrode voltage-clamp, Xenopus oocytes expressing Shaker IR. It counts as cell-based, insect. Conditions: 1 μM toxin, TEVC, n ≥ 3. As for the experimental part: as §1, §2
For a further data set, the system named is rKV1.1. Nature of the data set: Two-electrode voltage-clamp, Xenopus oocytes expressing rKV1.1. Type of data set: cell-based, rat. The note with it: 1 μM toxin, TEVC, n ≥ 3. As for the experimental part:
as §1, §2

Another data set concerns the target T1, rKV1.6 (Rattus norvegicus, UniProt P17659).
T1 construct: expressed in transfected cells; host or cells: Xenopus laevis oocytes injected with cRNA
Nature of the data set: Two-electrode voltage-clamp, Xenopus oocytes expressing rKV1.6. It counts as cell-based. Here is the method: as §1
Two-electrode voltage-clamp recordings were performed at room temperature (18–22°C) using a Geneclamp 500 amplifier (Molecular Devices, USA) controlled by a pClamp data acquisition system (Axon Instruments, USA). Whole cell currents from oocytes were recorded 1–4 days after injection. Bath solution composition was ND96 (in mM): NaCl, 96; KCl, 2; CaCl2, 1.8; MgCl2, 2 and HEPES, 5 (pH 7.4). Voltage and current electrodes were filled with 3 M KCl. Resistances of both electrodes were kept between 0.7–1.5 MΩ. The elicited currents were filtered at 1 kHz and sampled at 500 Hz using a four-pole low-pass Bessel filter. Leak subtraction was performed using a-P/4 protocol. KV1.1-KV1.6 and Shaker IR currents were evoked by 500 ms depolarizations to 0 mV followed by a 500 ms pulse to -50 mV, from a holding potential of -90 mV. In order to investigate the current-voltage relationship, current traces were evoked by 10 mV depolarization steps from a holding potential of -90 mV. All data represent at least 3 independent experiments (n ≥ 3) and are presented as mean ± standard error.

In the next data set the test system is rKV1.4. Put plainly: Two-electrode voltage-clamp, Xenopus oocytes expressing rKV1.4. It counts as cell-based, rat. Conditions: 1 μM toxin, TEVC, n ≥ 3. As for the experimental part: as §1, §2
In the next data set the test system is C57/ Bl/6 mice. The note with it: literature value for comparison; cited from earlier work. As for the experimental part: We injected increasing doses, from 0.8 to 25 ng, of Kbot21 to two sets of C57bL/6 mice containing each six individuals by i.c.v. The LD50 value corresponds to […] or 1μg/kg body weight which is 5 times to other LD50 values of some scorpion peptides, such as Maurotoxin, well characterized for their activity on potassium channels (LD50 = 100 ng).

T1 sequence (P17659 whole entry): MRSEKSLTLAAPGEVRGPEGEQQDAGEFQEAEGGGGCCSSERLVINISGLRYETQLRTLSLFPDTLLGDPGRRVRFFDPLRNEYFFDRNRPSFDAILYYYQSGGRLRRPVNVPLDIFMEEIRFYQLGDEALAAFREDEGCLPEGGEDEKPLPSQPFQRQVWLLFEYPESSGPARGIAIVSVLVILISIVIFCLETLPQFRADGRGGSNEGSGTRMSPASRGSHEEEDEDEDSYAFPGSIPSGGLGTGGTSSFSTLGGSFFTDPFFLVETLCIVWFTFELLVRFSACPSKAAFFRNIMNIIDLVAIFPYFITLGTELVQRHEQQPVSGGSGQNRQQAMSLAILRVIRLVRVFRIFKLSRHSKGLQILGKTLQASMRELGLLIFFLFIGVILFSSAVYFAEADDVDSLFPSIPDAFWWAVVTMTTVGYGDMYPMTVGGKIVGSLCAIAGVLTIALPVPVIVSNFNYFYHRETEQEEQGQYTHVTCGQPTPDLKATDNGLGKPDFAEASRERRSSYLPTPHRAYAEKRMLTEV

In general, Hill coefficient refers to a measure of the steepness of the concentration-response curve. As for `CC[C@H](C)[C@@H]1NC(=O)[C@@H]2CSSC[C@H](NC(=O)[C@H](C)NC(=O)[C@H](C)N)C(=O)N[C@@H](Cc3ccc(O)cc3)C(=O)N[C@@H](CO)C(=O)N[C@@H](CO)C(=O)N[C@@H](CC(=O)O)C(=O)N[C@H]3CSSC[C@H](NC(=O)[C@H](CCCCN)NC(=O)[C@H](CO)NC(=O)[C@H](CC(=O)O)NC1=O)C(=O)N[C@@H](CCCCN)C(=O)N[C@H](C(=O)N[C@@H](Cc1ccc(O)cc1)C(=O)N[C@@H](CCCCN)C(=O)O)CSSC[C@H](NC(=O)[C@H](CCCCN)NC(=O)[C@H](C(C)C)NC(=O)[C@H](CCCNC(=N)N)NC3=O)C(=O)N[C@@H](CCCNC(=N)N)C(=O)N[C@@H](C)C(=O)N[C@@H](CCSC)C(=O)NCC(=O)N[C@@H](Cc1ccccc1)C(=O)N[C@@H](CO)C(=O)N[C@@H](CO)C(=O)NCC(=O)N[C@@H](CCCCN)C(=O)N2` [Kbot21] (H-AACYSSDCRVKCRAMGFSSGKCIDSKCKCYK-OH; disulfide 3-22, 8-27, 12-29 (inferred); N-terminus and C-terminus assumed), the “Inhibition of potassium current” value in the data set on rKV2.1 is listed as “failed to exert any activity”; in the data set on rKV1.2, “completely inhibited”; with hKV1.3, “completely inhibited”; in the data set on rKV1.1, “completely inhibited”; at rKV1.6 (1 μM toxin, Xenopus oocytes, TEVC, n ≥ 3), “completely inhibited”; in the data set on rKV1.4, “failed to exert any activity”. Also, in the data set on Shaker IR, the “Inhibition of Shaker IR current” value is 65%. For the same compound, the “Reversibility of Kv1.6 block upon washout” value on rKV1.6 (500 nM toxin, current recovered quickly and completely upon washout, n = 3) is “reversible”. Also, the “V1/2 (midpoint of activation)” value at rKV1.6 (after application of 100 nM Kbot21, control 8.5 ± 0.9 mV, n ≥ 3, mean ± standard error, SEM) amounted to 6.9 ± 2.9 mV. The Hill coefficient on rKV1.6 (concentration-response curve on Kv1.6, mean ± standard error, n ≥ 3, SEM) was 1.1 ± 0.1.
Consider “Maurotoxin: scorpion peptide well characterized for activity on potassium channels (VSCTGSKDCYAPCRKQTGCPNAKCINKSCKCYGC; UniProt P80719 1-34, looked up)”, for which the LD50 with C57/ Bl/6 mice is reported as 100 ng.
